# Results: US6737383B1, “Herbicidal oxadiazolidines” (priority 1999, dated 2004)
# Experiments:
# blackgrass = assay: Test B pre/postemergence blackgrass; format: in vivo, Alopecurus myosuroides
# Procedure, shortened: (§1)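 Test chemicals in a non-phytotoxic solvent mixture with surfactant were sprayed preemergence onto planted seeds and postemergence onto plants 2 to 18 cm tall (1- to 4-leaf stage). After twelve to sixteen days in a greenhouse, injury was visually rated against untreated controls from 0 (no effect) to 10 (complete control).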
# surinam grass = assay: Test B pre/postemergence surinam grass; format: in vivo, Brachiaria decumbens
# Procedure, shortened: as §1
# cocklebur = assay: Test B pre/postemergence cocklebur; format: in vivo, Xanthium strumarium
# Procedure, shortened: as §1
# corn = assay: Test B pre/postemergence corn; format: in vivo, Zea mays
# Procedure, shortened: as §1
# crabgrass = assay: Test B pre/postemergence crabgrass; format: in vivo, Digitaria sanguinalis
# Procedure, shortened: as §1
# giant foxtail = assay: Test B pre/postemergence giant foxtail; format: in vivo, Setaria faberii
# Procedure, shortened: as §1
# morningglory = assay: Test B pre/postemergence morningglory; format: in vivo, Ipomoea hederacea
# Procedure, shortened: as §1
# rape = assay: Test B pre/postemergence rape; format: in vivo, Brassica napus
# Procedure, shortened: as §1
# soybean = assay: Test B pre/postemergence soybean; format: in vivo, Glycine max
# Procedure, shortened: as §1
# sugar beet = assay: Test B pre/postemergence sugar beet; format: in vivo, Beta vulgaris
# Procedure, shortened: as §1
# velvetleaf = assay: Test B pre/postemergence velvetleaf; format: in vivo, Abutilon theophrasti
# Procedure, shortened: as §1
# wheat = assay: Test B pre/postemergence wheat; format: in vivo, Triticum aestivum
# Procedure, shortened: as §1
# wild oat = assay: Test B pre/postemergence wild oat; format: in vivo, Avena fatua
# Procedure, shortened: as §1
# purple nutsedge = assay: Test B pre/postemergence purple nutsedge; format: in vivo, Cyperus rotundus
# Procedure, shortened: as §1
# smallflower flatsedge = assay: Test B flood test smallflower flatsedge; format: in vivo, Cyperus difformis
# Procedure, shortened: (§2)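 Each value is a visual injury score relative to controls, with 10 meaning complete control and 0 no effect. Evaluation took place twelve to sixteen days after the 2-leaf-stage plants were treated and kept in the greenhouse.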
# duck salad = assay: Test B flood test duck salad; format: in vivo, Heteranthera limosa
# Procedure, shortened: as §2
# [1] = Postemergence, Rate 1000 g/ha, scale 0 to 10 (0 no effect, 10 complete control)
# [2] = Preemergence, Rate 62 g/ha, scale of 0 to 10 where 0 is no effect and 10 is complete control
# [3] = Preemergence, Rate 125 g/ha, 0 is no effect, 10 is complete control
# [4] = Preemergence, Rate 250 g/ha, scale 0 to 10, 0 is no effect, 10 is complete control
# [5] = Preemergence, Rate 500 g/ha, scale 0 to 10 (0 no effect, 10 complete control)
# [6] = Rate 62 g/ha, Postemergence, scale of 0 to 10 where 0 is no effect and 10 is complete control
# [7] = Rate 125 g/ha, Postemergence, scale 0 to 10
# [8] = Rate 500 g/ha, Postemergence, scale 0 to 10
# [9] = Rate 1000 g/ha, Preemergence, scale 0 to 10 (0 no effect, 10 complete control)
# [10] = Rate 2000 g/ha, Postemergence, scale 0 to 10
# [11] = Rate 2000 g/ha, Preemergence, scale 0 to 10
# [12] = Rate 62 g/ha, headed Pre-emergence (flood test species), scale 0 to 10 (0 no effect, 10 complete control)
# [13] = Rate 125 g/ha, Pre-emergence, flood test species, scale 0 to 10 where 0 is no effect and 10 is complete control
# [14] = Rate 250 g/ha, Pre-emergence, flood-test species, scale 0 to 10, 0 is no effect, 10 is complete control
# [15] = Rate 2000 g/ha, Pre-emergence (as headed), scale 0 to 10
smiles,measurement,setting,value
CCN(C(=O)n1oc(=O)n(N(C)c2ccccc2)c1=O)C1CCCCC1 [Compound 183],Blackgrass plant response rating,blackgrass; [1],0
same,Blackgrass plant response rating,blackgrass; [2],0
same,Blackgrass plant response rating (0 to 10 scale),blackgrass; [3],0
same,Blackgrass plant response rating,blackgrass; [4],0
same,Blackgrass plant response rating,blackgrass; [5],0
same,Blackgrass plant response rating,blackgrass; [6],0
same,Blackgrass plant response rating,blackgrass; [7],0
same,"Plant response rating (0 to 10; 0 is no effect, 10 is complete control), Blackgrass","blackgrass; Rate 250 g/ha, Postemergence",0
same,Blackgrass plant response rating,blackgrass; [8],0
same,"Plant response rating, Blackgrass",blackgrass; [9],1
same,Blackgrass plant response rating,blackgrass; [10],0
same,Blackgrass plant response rating,blackgrass; [11],2
same,B. signalgrass plant response rating,surinam grass; [1],0
same,B. signalgrass plant response rating,surinam grass; [2],0
same,B. signalgrass plant response rating (0 to 10 scale),surinam grass; [3],0
same,B. signalgrass plant response rating,surinam grass; [4],4
same,B. signalgrass plant response rating,surinam grass; [5],4
same,B. signalgrass plant response rating,surinam grass; [6],0
same,B. signalgrass plant response rating,"surinam grass; Rate 125 g/ha, Postemergence, scale 0 (no effect) to 10 (complete control)",0
same,"Plant response rating, B. signalgrass","surinam grass; Rate 250 g/ha, Postemergence, scale 0 to 10, 0 is no effect, 10 is complete control",0
same,B. signalgrass plant response rating,"surinam grass; Rate 500 g/ha, Postemergence, scale 0 to 10, 0 no effect, 10 complete control",0
same,"Plant response rating, B. signalgrass",surinam grass; [9],0
same,B. signalgrass plant response rating,surinam grass; [10],0
same,B. signalgrass plant response rating,surinam grass; [11],2
same,Cocklebur plant response rating,cocklebur; [1],0
same,Cocklebur plant response rating,cocklebur; [2],0
same,Cocklebur plant response rating (0 to 10 scale),cocklebur; [3],0
same,Cocklebur plant response rating,cocklebur; [4],0
same,Cocklebur plant response rating,cocklebur; [5],0
same,Cocklebur plant response rating,cocklebur; [6],0
same,Cocklebur plant response rating,cocklebur; [7],0
same,"Plant response rating (0 to 10; 0 is no effect, 10 is complete control), Cocklebur","cocklebur; Rate 250 g/ha, Postemergence",0
same,Cocklebur plant response rating,cocklebur; [8],0
same,"Plant response rating, Cocklebur",cocklebur; [9],0
same,Cocklebur plant response rating,cocklebur; [10],2
same,Cocklebur plant response rating,cocklebur; [11],0
same,Corn plant response rating,corn; [1],0
same,Corn plant response rating,corn; [2],0
same,Corn plant response rating (0 to 10 scale),corn; [3],0
same,Corn plant response rating,corn; [4],0
same,Corn plant response rating,corn; [5],0
same,Corn plant response rating,corn; [6],0
same,Corn plant response rating,corn; [7],0
same,"Plant response rating (0 to 10; 0 is no effect, 10 is complete control), Corn","corn; Rate 250 g/ha, Postemergence",0
same,Corn plant response rating,corn; [8],0
same,"Plant response rating, Corn",corn; [9],0
same,Corn plant response rating,corn; [10],0
same,Corn plant response rating,corn; [11],0
same,Crabgrass plant response rating,crabgrass; [1],0
same,Crabgrass plant response rating,crabgrass; [2],0
same,Crabgrass plant response rating (0 to 10 scale),crabgrass; [3],0
same,Crabgrass plant response rating,crabgrass; [4],0
same,Crabgrass plant response rating,crabgrass; [5],3
same,Crabgrass plant response rating,crabgrass; [6],0
same,Crabgrass plant response rating,crabgrass; [7],0
same,"Plant response rating (0 to 10; 0 is no effect, 10 is complete control), Crabgrass","crabgrass; Rate 250 g/ha, Postemergence",0
same,Crabgrass plant response rating,crabgrass; [8],0
same,"Plant response rating, Crabgrass",crabgrass; [9],0
same,Crabgrass plant response rating,crabgrass; [10],0
same,Crabgrass plant response rating,crabgrass; [11],2
same,Giant foxtail plant response rating,giant foxtail; [1],0
same,Giant foxtail plant response rating,giant foxtail; [2],0
same,Giant foxtail plant response rating (0 to 10 scale),giant foxtail; [3],0
same,Giant foxtail plant response rating,giant foxtail; [4],0
same,Giant foxtail plant response rating,giant foxtail; [5],3
same,Giant foxtail plant response rating,giant foxtail; [6],0
same,Giant foxtail plant response rating,giant foxtail; [7],0
same,"Plant response rating (0 to 10; 0 is no effect, 10 is complete control), Giant foxtail","giant foxtail; Rate 250 g/ha, Postemergence",0
same,Giant foxtail plant response rating,giant foxtail; [8],0
same,"Plant response rating, Giant foxtail",giant foxtail; [9],6
same,Giant foxtail plant response rating,giant foxtail; [10],0
same,Giant foxtail plant response rating,giant foxtail; [11],9
same,Morningglory plant response rating,morningglory; [1],4
same,Morningglory plant response rating,morningglory; [2],0
same,Morningglory plant response rating (0 to 10 scale),morningglory; [3],0
same,Morningglory plant response rating,morningglory; [4],0
same,Morningglory plant response rating,morningglory; [5],0
same,Morningglory plant response rating,morningglory; [6],0
same,Morningglory plant response rating,morningglory; [7],0
same,"Plant response rating (0 to 10; 0 is no effect, 10 is complete control), Morningglory","morningglory; Rate 250 g/ha, Postemergence",1
same,Morningglory plant response rating,morningglory; [8],2
same,"Plant response rating, Morningglory",morningglory; [9],0
same,Morningglory plant response rating,morningglory; [10],5
same,Morningglory plant response rating,morningglory; [11],0
same,Rape plant response rating,rape; [1],0
same,Rape plant response rating,rape; [2],0
same,Rape plant response rating (0 to 10 scale),rape; [3],0
same,Rape plant response rating,rape; [4],0
same,Rape plant response rating,rape; [5],0
same,Rape plant response rating,rape; [6],0
same,Rape plant response rating,rape; [7],0
same,"Plant response rating (0 to 10; 0 is no effect, 10 is complete control), Rape","rape; Rate 250 g/ha, Postemergence",0
same,Rape plant response rating,rape; [8],0
same,"Plant response rating, Rape",rape; [9],0
same,Rape plant response rating,rape; [10],0
same,Rape plant response rating,rape; [11],0
same,Soybean plant response rating,soybean; [1],2
same,Soybean plant response rating,soybean; [2],0
same,Soybean plant response rating (0 to 10 scale),soybean; [3],0
same,Soybean plant response rating,soybean; [4],0
same,Soybean plant response rating,soybean; [5],0
same,Soybean plant response rating,soybean; [6],0
same,Soybean plant response rating,soybean; [7],1
same,"Plant response rating (0 to 10; 0 is no effect, 10 is complete control), Soybean","soybean; Rate 250 g/ha, Postemergence",2
same,Soybean plant response rating,soybean; [8],2
same,"Plant response rating, Soybean",soybean; [9],0
same,Soybean plant response rating,soybean; [10],3
same,Soybean plant response rating,soybean; [11],0
same,Sugarbeets plant response rating,sugar beet; [1],0
same,Sugarbeets plant response rating,sugar beet; [2],0
same,Sugarbeets plant response rating (0 to 10 scale),sugar beet; [3],0
same,Sugarbeets plant response rating,sugar beet; [4],0
same,Sugarbeets plant response rating,sugar beet; [5],0
same,Sugarbeets plant response rating,sugar beet; [6],0
same,Sugarbeets plant response rating,sugar beet; [7],0
same,"Plant response rating (0 to 10; 0 is no effect, 10 is complete control), Sugarbeets","sugar beet; Rate 250 g/ha, Postemergence",0
same,Sugarbeets plant response rating,sugar beet; [8],0
same,"Plant response rating, Sugarbeets",sugar beet; [9],0
same,Sugarbeets plant response rating,sugar beet; [10],0
same,Sugarbeets plant response rating,sugar beet; [11],0
same,Velvetleaf plant response rating,velvetleaf; [1],1
same,Velvetleaf plant response rating,velvetleaf; [2],0
same,Velvetleaf plant response rating,velvetleaf; [4],0
same,Velvetleaf plant response rating,velvetleaf; [5],0
same,Velvetleaf plant response rating,velvetleaf; [7],0
same,"Plant response rating (0 to 10; 0 is no effect, 10 is complete control), Velvetleaf","velvetleaf; Rate 250 g/ha, Postemergence",0
same,Velvetleaf plant response rating,velvetleaf; [8],0
same,"Plant response rating, Velvetleaf",velvetleaf; [9],0
same,Velvetleaf plant response rating,velvetleaf; [10],1
same,Velvetleaf plant response rating,velvetleaf; [11],0
same,Wheat plant response rating,wheat; [1],0
same,Wheat plant response rating,wheat; [2],0
same,Wheat plant response rating,wheat; [4],0
same,Wheat plant response rating,wheat; [5],0
same,Wheat plant response rating,wheat; [7],0
same,"Plant response rating (0 to 10; 0 is no effect, 10 is complete control), Wheat","wheat; Rate 250 g/ha, Postemergence",0
same,Wheat plant response rating,wheat; [8],0
same,"Plant response rating, Wheat",wheat; [9],0
same,Wheat plant response rating,wheat; [10],0
same,Wheat plant response rating,wheat; [11],0
same,Wild oats plant response rating,wild oat; [1],0
same,Wild oats plant response rating,wild oat; [2],0
same,Wild oats plant response rating,wild oat; [4],0
same,Wild oats plant response rating,wild oat; [5],0
same,Wild oats plant response rating,wild oat; [7],0
same,"Plant response rating (0 to 10; 0 is no effect, 10 is complete control), Wild oats","wild oat; Rate 250 g/ha, Postemergence",0
same,Wild oats plant response rating,wild oat; [8],0
same,"Plant response rating, Wild oats",wild oat; [9],0
same,Wild oats plant response rating,wild oat; [10],0
same,Wild oats plant response rating,wild oat; [11],3
same,Nutsedge plant response rating,purple nutsedge; [1],0
same,Nutsedge plant response rating,purple nutsedge; [2],0
same,Nutsedge plant response rating (0 to 10 scale),purple nutsedge; [3],0
same,Nutsedge plant response rating,purple nutsedge; [4],0
same,Nutsedge plant response rating,purple nutsedge; [5],0
same,Nutsedge plant response rating,purple nutsedge; [6],0
same,Nutsedge plant response rating,purple nutsedge; [7],0
same,"Plant response rating (0 to 10; 0 is no effect, 10 is complete control), Nutsedge","purple nutsedge; Rate 250 g/ha, Postemergence",0
same,Nutsedge plant response rating,purple nutsedge; [8],0
same,"Plant response rating, Nutsedge",purple nutsedge; [9],0
same,Nutsedge plant response rating,purple nutsedge; [10],0
same,Nutsedge plant response rating,purple nutsedge; [11],0
same,S. Flatsedge plant response rating,"smallflower flatsedge; Pre-emergence, Rate 1000 g/ha, scale 0 to 10 (0 no effect, 10 complete control)",0
same,S. Flatsedge plant response rating,smallflower flatsedge; [12],0
same,S. Flatsedge plant response rating,smallflower flatsedge; [13],0
same,S. Flatsedge plant response rating,smallflower flatsedge; [14],0
same,S. Flatsedge plant response rating,"smallflower flatsedge; Rate 500 g/ha, Pre-emergence, flood test species, scale 0 to 10 (0 no effect, 10 complete control)",0
same,S. Flatsedge plant response rating,smallflower flatsedge; [15],0
same,Ducksalad plant response rating,duck salad; [12],0
same,Ducksalad plant response rating,duck salad; [13],0
same,Ducksalad plant response rating,duck salad; [14],0
same,"Plant response rating, Ducksalad","duck salad; Rate 500 g/ha, headed Pre-emergence (flood test species), scale 0 to 10 (0 no effect, 10 complete control)",0
same,Ducksalad plant response rating,"duck salad; Rate 1000 g/ha, Pre-emergence (as headed), scale 0 to 10",0
same,Ducksalad plant response rating,duck salad; [15],0
